# Test results reported in ChEMBL document CHEMBL1671627, “Increasing trends in antimicrobial resistance among clinically important anaerobes and Bacteroides fragilis isolates causing nosocomial infections: emerging resistance to carbapenems” (2008).
# Tests used:
# Bacteroides caccae [1] = assay: Antibacterial activity against beta-lactamase producing Bacteroides caccae by CLSI agar dilution method; assay type: functional
# [2] = system: Clostridium paraputrificum; assay: Antibacterial activity against beta-lactamase producing Clostridium paraputrificum assessed as susceptible isolates by CLSI agar dilution method; assay type: functional
# Clostridium septicum [3] = assay: Antibacterial activity against beta-lactamase producing Clostridium septicum assessed as susceptible isolates by CLSI agar dilution method; assay type: functional
# Bacteroides caccae [4] = assay: Antibacterial activity against beta-lactamase producing Bacteroides caccae assessed as susceptible isolates by CLSI agar dilution method; assay type: functional
# Phocaeicola vulgatus [5] = assay: Antibacterial activity against beta-lactamase producing Bacteroides vulgatus assessed as resistant isolates by CLSI agar dilution method; assay type: functional
# Finegoldia magna [6] = assay: Antibacterial activity against beta-lactamase producing Finegoldia magna by CLSI agar dilution method; assay type: functional
# [7] = system: Fusobacterium necrophorum; assay: Antibacterial activity against Fusobacterium necrophorum assessed as resistant isolates by CLSI agar dilution method; assay type: functional
# Bacteroides uniformis [8] = assay: Antibacterial activity against beta-lactamase producing Bacteroides uniformis assessed as resistant isolates by CLSI agar dilution method; assay type: functional
# [9] = system: Prevotella melaninogenica; assay: Antibacterial activity against Prevotella melaninogenica assessed as susceptible isolates by CLSI agar dilution method; assay type: functional
# Veillonella parvula = assay: Antibacterial activity against Veillonella parvula by CLSI agar dilution method; assay type: functional
# Fusobacterium nucleatum [10] = assay: Antibacterial activity against Fusobacterium nucleatum assessed as susceptible isolates by CLSI agar dilution method; assay type: functional
# Clostridium septicum [11] = assay: Antibacterial activity against beta-lactamase producing Clostridium septicum assessed as resistant isolates by CLSI agar dilution method; assay type: functional
# [12] = system: Peptoniphilus asaccharolyticus; assay: Antibacterial activity against beta-lactamase producing Peptoniphilus asaccharolyticus by CLSI agar dilution method; assay type: functional
# [13] = system: Prevotella melaninogenica; assay: Antibacterial activity against Prevotella melaninogenica assessed as resistant isolates by CLSI agar dilution method; assay type: functional
# Fusobacterium nucleatum [14] = assay: Antibacterial activity against Fusobacterium nucleatum by CLSI agar dilution method; assay type: functional
# Bacteroides fragilis [15] = assay: Antibacterial activity against Bacteroides fragilis assessed as susceptible isolates by CLSI agar dilution method; assay type: functional
# [16] = system: Bacteroides thetaiotaomicron; assay: Antibacterial activity against beta-lactamase producing Bacteroides thetaiotaomicron assessed as susceptible isolates by CLSI agar dilution method; assay type: functional
# Prevotella bivia [17] = assay: Antibacterial activity against Prevotella bivia by CLSI agar dilution method; assay type: functional
# [18] = system: Fusobacterium necrophorum; assay: Antibacterial activity against Fusobacterium necrophorum assessed as susceptible isolates by CLSI agar dilution method; assay type: functional
# [19] = system: Bacteroides thetaiotaomicron; assay: Antibacterial activity against beta-lactamase producing Bacteroides thetaiotaomicron by CLSI agar dilution method; assay type: functional
# Phocaeicola vulgatus [20] = assay: Antibacterial activity against beta-lactamase producing Bacteroides vulgatus by CLSI agar dilution method; assay type: functional
# [21] = system: Bacteroides thetaiotaomicron; assay: Antibacterial activity against beta-lactamase producing Bacteroides thetaiotaomicron assessed as resistant isolates by CLSI agar dilution method; assay type: functional
# Prevotella bivia [22] = assay: Antibacterial activity against Prevotella bivia assessed as resistant isolates by CLSI agar dilution method; assay type: functional
# [23] = system: Peptostreptococcus anaerobius; assay: Antibacterial activity against beta-lactamase producing Peptostreptococcus anaerobius assessed as resistant isolates by CLSI agar dilution method; assay type: functional
# Bacteroides caccae [24] = assay: Antibacterial activity against beta-lactamase producing Bacteroides caccae assessed as resistant isolates by CLSI agar dilution method; assay type: functional
# Fusobacterium mortiferum [25] = assay: Antibacterial activity against Fusobacterium mortiferum assessed as susceptible isolates by CLSI agar dilution method; assay type: functional
# Prevotella intermedia [26] = assay: Antibacterial activity against Prevotella intermedia by CLSI agar dilution method; assay type: functional
# Prevotella intermedia [27] = assay: Antibacterial activity against Prevotella intermedia assessed as susceptible isolates by CLSI agar dilution method; assay type: functional
# Finegoldia magna [28] = assay: Antibacterial activity against beta-lactamase producing Finegoldia magna assessed as resistant isolates by CLSI agar dilution method; assay type: functional
# Parvimonas micra [29] = assay: Antibacterial activity against beta-lactamase producing Micromonas micros by CLSI agar dilution method; assay type: functional
# [30] = system: Clostridium paraputrificum; assay: Antibacterial activity against beta-lactamase producing Clostridium paraputrificum assessed as resistant isolates by CLSI agar dilution method; assay type: functional
# Finegoldia magna [31] = assay: Antibacterial activity against beta-lactamase producing Finegoldia magna assessed as susceptible isolates by CLSI agar dilution method; assay type: functional
# Clostridium tertium [32] = assay: Antibacterial activity against beta-lactamase producing Clostridium tertium by CLSI agar dilution method; assay type: functional
# Fusobacterium nucleatum [33] = assay: Antibacterial activity against Fusobacterium nucleatum assessed as resistant isolates by CLSI agar dilution method; assay type: functional
# Fusobacterium varium [34] = assay: Antibacterial activity against Fusobacterium varium by CLSI agar dilution method; assay type: functional
# Parvimonas micra [35] = assay: Antibacterial activity against beta-lactamase producing Micromonas micros assessed as resistant isolates by CLSI agar dilution method; assay type: functional
# Bacteroides uniformis [36] = assay: Antibacterial activity against beta-lactamase producing Bacteroides uniformis assessed as susceptible isolates by CLSI agar dilution method; assay type: functional
# [37] = system: Peptostreptococcus anaerobius; assay: Antibacterial activity against beta-lactamase producing Peptostreptococcus anaerobius by CLSI agar dilution method; assay type: functional
# Bacteroides fragilis [38] = assay: Antibacterial activity against Bacteroides fragilis assessed as resistant isolates by CLSI agar dilution method; assay type: functional
# Prevotella buccae [39] = assay: Antibacterial activity against Prevotella buccae assessed as susceptible isolates by CLSI agar dilution method; assay type: functional, Segatella buccae
# [40] = system: Clostridium paraputrificum; assay: Antibacterial activity against beta-lactamase producing Clostridium paraputrificum by CLSI agar dilution method; assay type: functional
# Clostridium tertium [41] = assay: Antibacterial activity against beta-lactamase producing Clostridium tertium assessed as resistant isolates by CLSI agar dilution method; assay type: functional
# Prevotella buccae [42] = assay: Antibacterial activity against Prevotella buccae by CLSI agar dilution method; assay type: functional; details: Segatella buccae
# [43] = system: Peptoniphilus asaccharolyticus; assay: Antibacterial activity against beta-lactamase producing Peptoniphilus asaccharolyticus assessed as resistant isolates by CLSI agar dilution method; assay type: functional
# Fusobacterium varium [44] = assay: Antibacterial activity against Fusobacterium varium assessed as resistant isolates by CLSI agar dilution method; assay type: functional
# Prevotella bivia [45] = assay: Antibacterial activity against Prevotella bivia assessed as susceptible isolates by CLSI agar dilution method; assay type: functional
# Parvimonas micra [46] = assay: Antibacterial activity against beta-lactamase producing Micromonas micros assessed as susceptible isolates by CLSI agar dilution method; assay type: functional
# Clostridium perfringens = assay: microbe, parasite or virus in culture; assay type: functional
# Fusobacterium varium [47] = assay: Antibacterial activity against Fusobacterium varium assessed as susceptible isolates by CLSI agar dilution method; assay type: functional
# [48] = system: Peptostreptococcus anaerobius; assay: Antibacterial activity against beta-lactamase producing Peptostreptococcus anaerobius assessed as susceptible isolates by CLSI agar dilution method; assay type: functional
# Clostridium septicum [49] = assay: Antibacterial activity against beta-lactamase producing Clostridium septicum by CLSI agar dilution method; assay type: functional
# Bacteroides uniformis [50] = assay: Antibacterial activity against beta-lactamase producing Bacteroides uniformis by CLSI agar dilution method; assay type: functional
# Bacteroides fragilis [51] = assay: Antibacterial activity against Bacteroides fragilis by CLSI agar dilution method; assay type: functional
# Phocaeicola vulgatus [52] = assay: Antibacterial activity against beta-lactamase producing Bacteroides vulgatus assessed as susceptible isolates by CLSI agar dilution method; assay type: functional
# Clostridium tertium [53] = assay: Antibacterial activity against beta-lactamase producing Clostridium tertium assessed as susceptible isolates by CLSI agar dilution method; assay type: functional
# Fusobacterium mortiferum [54] = assay: Antibacterial activity against Fusobacterium mortiferum assessed as resistant isolates by CLSI agar dilution method; assay type: functional
# Fusobacterium mortiferum [55] = assay: Antibacterial activity against Fusobacterium mortiferum by CLSI agar dilution method; assay type: functional
# [56] = system: Peptoniphilus asaccharolyticus; assay: Antibacterial activity against beta-lactamase producing Peptoniphilus asaccharolyticus assessed as susceptible isolates by CLSI agar dilution method; assay type: functional
# [57] = system: Fusobacterium necrophorum; assay: Antibacterial activity against Fusobacterium necrophorum by CLSI agar dilution method; assay type: functional
# Prevotella buccae [58] = assay: Antibacterial activity against Prevotella buccae assessed as resistant isolates by CLSI agar dilution method; assay type: functional, Segatella buccae
# Prevotella intermedia [59] = assay: Antibacterial activity against Prevotella intermedia assessed as resistant isolates by CLSI agar dilution method; assay type: functional
# [60] = system: Prevotella melaninogenica; assay: Antibacterial activity against Prevotella melaninogenica by CLSI agar dilution method; assay type: functional
smiles,measurement,setting,value
CO[C@@]1(NC(=O)CSCC#N)C(=O)N2C(C(=O)O)=C(CSc3nnnn3C)CS[C@@H]21 [CEFMETAZOLE],MIC50,Bacteroides caccae [1],32 µg/mL
same,MIC90,Bacteroides caccae [1],128 µg/mL
same,Activity,[2],89%
same,Activity,Clostridium septicum [3],89%
same,Activity,Bacteroides caccae [4],44%
same,Activity,Phocaeicola vulgatus [5],30%
same,MIC50,Finegoldia magna [6],0.5 µg/mL
same,MIC90,Finegoldia magna [6],8 µg/mL
same,Activity,[7],0%
same,Activity,Bacteroides uniformis [8],30%
same,Activity,[9],94%
same,MIC,Veillonella parvula,> 0.25 µg/mL
same,Activity,Fusobacterium nucleatum [10],100%
same,Activity,Clostridium septicum [11],0%
same,MIC50,[12],0.5 µg/mL
same,MIC90,[12],8 µg/mL
same,Activity,[13],6%
same,MIC50,Fusobacterium nucleatum [14],1 µg/mL
same,MIC90,Fusobacterium nucleatum [14],2 µg/mL
same,Activity,Bacteroides fragilis [15],72%
same,Activity,[16],20%
same,MIC50,Prevotella bivia [17],2 µg/mL
same,MIC90,Prevotella bivia [17],8 µg/mL
same,Activity,[18],100%
same,MIC50,[19],32 µg/mL
same,MIC90,[19],64 µg/mL
same,MIC50,Phocaeicola vulgatus [20],32 µg/mL
same,MIC90,Phocaeicola vulgatus [20],128 µg/mL
same,Activity,[21],17%
same,Activity,Prevotella bivia [22],6%
same,Activity,[23],0%
same,Activity,Bacteroides caccae [24],30%
same,Activity,Fusobacterium mortiferum [25],100%
same,MIC50,Prevotella intermedia [26],2 µg/mL
same,MIC90,Prevotella intermedia [26],8 µg/mL
same,Activity,Prevotella intermedia [27],94%
same,Activity,Finegoldia magna [28],0%
same,MIC50,Parvimonas micra [29],0.5 µg/mL
same,MIC90,Parvimonas micra [29],8 µg/mL
same,Activity,[30],0%
same,Activity,Finegoldia magna [31],97%
same,MIC50,Clostridium tertium [32],1 µg/mL
same,MIC90,Clostridium tertium [32],16 µg/mL
same,Activity,Fusobacterium nucleatum [33],0%
same,MIC50,Fusobacterium varium [34],1 µg/mL
same,MIC90,Fusobacterium varium [34],2 µg/mL
same,Activity,Parvimonas micra [35],0%
same,Activity,Bacteroides uniformis [36],44%
same,MIC50,[37],0.5 µg/mL
same,MIC90,[37],8 µg/mL
same,Activity,Bacteroides fragilis [38],13%
same,Activity,Prevotella buccae [39],94%
same,MIC50,[40],1 µg/mL
same,MIC90,[40],16 µg/mL
same,Activity,Clostridium tertium [41],0%
same,MIC50,Prevotella buccae [42],2 µg/mL
same,MIC90,Prevotella buccae [42],8 µg/mL
same,Activity,[43],0%
same,Activity,Fusobacterium varium [44],0%
same,Activity,Prevotella bivia [45],94%
same,Activity,Parvimonas micra [46],97%
same,MIC50,Clostridium perfringens,1 µg/mL
same,MIC90,Clostridium perfringens,16 µg/mL
same,Activity,Fusobacterium varium [47],100%
same,Activity,[48],97%
same,MIC50,Clostridium septicum [49],1 µg/mL
same,MIC90,Clostridium septicum [49],16 µg/mL
same,MIC50,Bacteroides uniformis [50],32 µg/mL
same,MIC90,Bacteroides uniformis [50],128 µg/mL
same,MIC50,Bacteroides fragilis [51],16 µg/mL
same,MIC90,Bacteroides fragilis [51],64 µg/mL
same,Activity,Phocaeicola vulgatus [52],44%
same,Activity,Clostridium tertium [53],89%
same,Activity,Fusobacterium mortiferum [54],0%
same,MIC50,Fusobacterium mortiferum [55],1 µg/mL
same,MIC90,Fusobacterium mortiferum [55],2 µg/mL
same,Activity,[56],97%
same,MIC50,[57],1 µg/mL
same,MIC90,[57],2 µg/mL
same,Activity,Prevotella buccae [58],6%
same,Activity,Prevotella intermedia [59],6%
same,MIC50,[60],2 µg/mL
same,MIC90,[60],8 µg/mL
